Results from patent US7855292B2, “Sulfonamide compounds” (Janssen Pharmaceutica NV, priority 2004, dated 2010).

Target: T1, CCK2 receptor (Homo sapiens, UniProt P32239)
T1 construct: analyzed for ZFP expression as well as CCK2R induction upon addition of doxycycline to the culture medium; endogenous in cells
T1 sequence (P32239 1-447): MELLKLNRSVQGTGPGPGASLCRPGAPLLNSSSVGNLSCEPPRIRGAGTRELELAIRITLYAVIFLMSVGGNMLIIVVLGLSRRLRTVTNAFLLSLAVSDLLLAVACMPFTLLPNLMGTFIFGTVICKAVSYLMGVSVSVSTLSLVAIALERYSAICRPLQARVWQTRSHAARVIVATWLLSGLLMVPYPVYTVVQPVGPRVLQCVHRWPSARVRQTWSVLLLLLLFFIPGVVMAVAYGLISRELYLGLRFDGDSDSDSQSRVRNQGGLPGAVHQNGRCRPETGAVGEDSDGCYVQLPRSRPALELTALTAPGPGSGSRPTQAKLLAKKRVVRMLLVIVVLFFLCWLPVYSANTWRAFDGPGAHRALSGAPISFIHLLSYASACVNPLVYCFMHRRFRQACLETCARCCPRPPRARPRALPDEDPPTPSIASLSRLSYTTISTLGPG
Experiment: CCK2 binding assay ([125I]-BH-CCK-8S displacement, HEKZFP membranes)
Conditions: membranes of doxycycline-induced HEKZFP cells; 20 pM [125I]-BH-CCK-8S; 60 min at 21±3° C.; read-out: CCK2 pKi (converted)

O=C(N[C@@H](Cc1ccc(Cl)c(Cl)c1)C(=O)O)c1ccc(I)cc1NS(=O)(=O)c1cccc2nsnc12 [Example 2, (S)-2-[2-(Benzo[1,2,5]thiadiazole-4-sulfonylamino)-4-iodo-benzoylamino]-3-(3,4-dichloro-phenyl)-propionic acid]
Ki: 31.6 nM
